Converted amounts (≈) assume the structure as drawn. Like-named read-outs stand apart in the source and are kept apart here.
Assays:
[1] = test system: Acinetobacter SP CMX 669; test: In-vitro antimicrobial activity primary screen (agar dilution MIC); format: cell-based; conditions: Acinetobacter, SPCMX669, 24 h
Method in brief: (§1)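 Each strain was applied with a Steers replicator block to agar plates containing graded test compound, using 1:100 inocula, or 1:10 where growth was slow, as with Streptococcus. Plates were incubated for 20-24 hours at 35-37° C. A reference antibiotic of the same class was run alongside.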

[2] = test system: Enterobacter aerogenes ATCC 13048; test: as above; format: cell-based; conditions: Klebsiella aerogenes, ATCC13048; Enterobacter aerogenes ATCC 13048; BHI agar, 20-24 h; read-out: MIC
Method in brief: as §1

[3] = test system: Enterococcus faecium ATCC 8043; test: as above; format: cell-based; conditions: Enterococcus faecium, ATCC8043, 24 h
Method in brief: as §1

[4] = test system: Escherichia coli DC-2; test: as above; format: cell-based; conditions: DC2; Escherichia coli DC-2; BHI agar, 20-24 h; read-out: MIC
Method in brief: as §1

[5] = test system: Escherichia coli H560; test: as above; format: cell-based; conditions: Escherichia coli H560; BHI agar, 20-24 h; read-out: MIC
Method in brief: as §1

[6] = test system: Escherichia coli JUHL; test: as above; format: cell-based; conditions: Escherichia coli JUHL; BHI agar, 20-24 h; read-out: MIC
Method in brief: as §1

[7] = test system: Escherichia coli SS; test: as above; format: cell-based; conditions: BHI agar, 20-24 h
Method in brief: as §1

[8] = test system: Klebsiella pneumoniae ATCC 8045; test: as above; format: cell-based; conditions: Klebsiella pneumoniae ATCC 8045, BHI agar, 20-24 h
Method in brief: as §1

[9] = test system: Micrococcus luteus ATCC 4698; test: as above; format: cell-based; conditions: Micrococcus luteus, ATCC4698, 24 h, BHI agar, 20-24 h
Method in brief: as §1

[10] = test system: Micrococcus luteus ATCC 9341; test: as above; format: cell-based; conditions: 20-24 h
Method in brief: as §1

[11] = test system: Providencia stuartii CMX 640; test: as above; format: cell-based; conditions: CMX640; Providencia stuartii CMX 640; BHI agar, 20-24 h; read-out: MIC
Method in brief: as §1

[12] = test system: Pseudomonas aeruginosa A5007; test: as above; format: cell-based; conditions: Pseudomonas aeruginosa A5007; BHI agar, 20-24 h; read-out: MIC
Method in brief: as §1

[13] = test system: Pseudomonas aeruginosa BMH10; test: as above; format: cell-based; conditions: BHI agar, 20-24 h, read-out: MIC
Method in brief: as §1

[14] = test system: Pseudomonas aeruginosa K799/61; test: as above; format: cell-based; conditions: Pseudomonas aeruginosa K799/61, BHI agar, 20-24 h
Method in brief: as §1

[15] = test system: Pseudomonas aeruginosa K799/WT; test: as above; format: cell-based; conditions: Pseudomonas aeruginosa K799/WT; BHI agar, 20-24 h; read-out: MIC
Method in brief: as §1

[16] = test system: Pseudomonas cepacia 2961; test: as above; format: cell-based; conditions: Burkholderia cepacia, BHI agar, 20-24 h, read-out: MIC
Method in brief: as §1

[17] = test system: Staphylococcus aureus 45 RAR2; test: as above; format: cell-based; conditions: Staphylococcus aureus, 45RAR2, 24 h, BHI agar, 20-24 h
Method in brief: as §1

[18] = test system: Staphylococcus aureus 45; test: as above; format: cell-based; conditions: BHI agar, 20-24 h, read-out: MIC
Method in brief: as §1

[19] = test system: Staphylococcus aureus A5177; test: as above; format: cell-based; conditions: Staphylococcus aureus A5177, BHI agar, 20-24 h
Method in brief: as §1

[20] = test system: Staphylococcus aureus ATCC 6538P; test: as above; format: cell-based; conditions: Staphylococcus aureus, ATCC6538P, 24 h, BHI agar, 20-24 h
Method in brief: as §1

[21] = test system: Staphylococcus epidermidis 3519; test: as above; format: cell-based; conditions: BHI agar, 20-24 h, read-out: MIC
Method in brief: as §1

[22] = test system: Streptococcus agalactiae CMX 508; test: as above; format: cell-based; conditions: 20-24 h
Method in brief: as §1

[23] = test system: Streptococcus bovis A5169; test: as above; format: cell-based; conditions: Streptococcus equinus, BHI agar, 20-24 h, read-out: MIC
Method in brief: as §1

[24] = test system: Streptococcus pyrogenes 2548 INDUC; test: as above; format: cell-based; conditions: BHI agar, 20-24 h
Method in brief: as §1

[25] = test system: Streptococcus pyrogenes EES61; test: as above; format: cell-based; conditions: BHI agar, 20-24 h
Method in brief: as §1

[26] = test system: Staphylococcus aureus CMX 503A; test: as above; format: cell-based; conditions: Staphylococcus aureus, CMX503A, 24 h, BHI agar, 20-24 h, read-out: MIC
Method in brief: (§2)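 Agar dilution in Brain Heart Infusion agar with twelve successive compound dilutions; plates inoculated with 1:100 diluted cultures by replicator and incubated 20-24 h at 35-37 °C. MIC is the lowest concentration giving no growth, slight haze or sparse isolated colonies versus compound-free control; erythromycin A plate run as reference.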

[27] = test system: Staphylococcus aureus CMX 553; test: as above; format: cell-based; conditions: Staphylococcus aureus, CMX553, 24 h, BHI agar, 20-24 h, read-out: MIC
Method in brief: as §2

[28] = test system: Staphylococcus aureus CMX 686B; test: as above; format: cell-based; conditions: CMX686B, BHI agar, 20-24 h, read-out: MIC
Method in brief: as §2

[29] = test system: Staphylococcus aureus (NCTC 10649); test: In-vivo acute mouse protection assay; design: species or system Staphylococcus aureus; female Swiss albino mice; conditions: Staphylococcus aureus, dosed 1 and 5 h post-infection, observed 7 days, read-out: ED50
Protocol: An acute mouse protection test was conducted on ten mice with each of three concentrations of selected compounds of the invention. Each concentration was a four-fold dilution of the previous concentration. The initial concentration will vary with the microorganism with which the mouse is challenged.
The acute mouse protection test was conducted on female, Swiss albino mice, 18-20 grams in weight. […] To check the potency of the inoculum, a titration of the indicated test organism was carried out in control animals. The titration determines the LD50 for a particular microorganism. The treatment groups of animals were dosed orally, by gavage, or subcutaneously with the test compounds at 1 and 5 hours post-infection and observed for 7 days. The ED50 were calculated using the mortality data collected.

[30] = NCTC10649, sc, 168 h, subcutaneous

In the case of CC[C@H]1OC(=O)[C@H](C)[C@@H](O[C@H]2C[C@@](C)(OC)[C@@H](O)[C@H](C)O2)[C@H](C)[C@@H](O[C@@H]2O[C@H](C)C[C@H](N(C)C)[C@H]2O)[C@](C)(O)C[C@@H](C)[C@@H]2O[C@@]1(C)[C@@H](N)[C@H]2C [Example 19, (9S,11S)-11-Amino-9-deoxo-11,12-deoxy-9,12-epoxyerythromycin A], the MIC [1] is reported as 1.56 µg/mL (≈ 2.18 µM), the MIC [2] is reported as 100 µg/mL (≈ 139 µM) and the MIC [3] is reported as 0.05 µg/mL (≈ 0.0697 µM). For the same compound, the MIC [4] was 50 µg/mL (≈ 69.7 µM), the MIC [5] was 6.2 µg/mL (≈ 8.65 µM) and the MIC [6] was > 100 µg/mL. For the same compound, the MIC ([7]; read-out: MIC) was 0.78 µg/mL (≈ 1.09 µM), the MIC ([8]; Klebsiella pneumoniae, ATCC8045, 24 h) was 25 µg/mL (≈ 34.9 µM) and the MIC [9] was 0.1 µg/mL (≈ 0.139 µM). For the same compound, the MIC ([10]; ATCC9341, BHI agar, read-out: MIC) was 0.01 µg/mL (≈ 0.0139 µM), the MIC [11] was > 100 µg/mL and the MIC [12] was > 100 µg/mL. It also gave an MIC [13] of 50 µg/mL (≈ 69.7 µM), an MIC ([14]; read-out: MIC) of 0.78 µg/mL (≈ 1.09 µM) and an MIC [15] of 100 µg/mL (≈ 139 µM). For the same compound, the MIC [16] was > 100 µg/mL, the MIC [17] was 0.39 µg/mL (≈ 0.544 µM) and the MIC [18] was 0.2 µg/mL (≈ 0.279 µM). For the same compound, the MIC ([19]; read-out: MIC) was 0.39 µg/mL (≈ 0.544 µM), the MIC [20] was 0.2 µg/mL (≈ 0.279 µM) and the MIC [21] was 0.2 µg/mL (≈ 0.279 µM). It also gave an MIC ([22]; CMX508, BHI agar, read-out: MIC) of 0.02 µg/mL (≈ 0.0279 µM), an MIC [23] of 0.1 µg/mL (≈ 0.139 µM) and an MIC ([24]; Streptococcus, 2548INDUC, 24 h) of 3.1 µg/mL (≈ 4.32 µM). The MIC ([25]; read-out: MIC) was < 0.005 µg/mL, the MIC [26] was 0.2 µg/mL (≈ 0.279 µM) and the MIC [27] was 0.2 µg/mL (≈ 0.279 µM). For the same compound, the MIC [28] was 0.2 µg/mL (≈ 0.279 µM), the ED50 ([29]; NCTC10649, 168 h, oral) was 75.4 mg/kg and the ED50 [29, 30] was 20.7 mg/kg.

CC[C@H]1OC(=O)[C@H](C)[C@@H](O[C@H]2C[C@@](C)(OC)[C@@H](O)[C@H](C)O2)[C@H](C)[C@@H](O[C@@H]2O[C@H](C)C[C@H](N(C)C)[C@H]2O)[C@](C)(O)C[C@@H](C)[C@@H]2O[C@@]1(C)C(=O)[C@H]2C [Example 5, (9S)-9-Deoxo-11,12-dideoxy-9,12-epoxy-11-oxoerythromycin A] was tested, and the MIC ([1]; Acinetobacter SP CMX 669, BHI agar, 20-24 h) was 12.5 µg/mL (≈ 17.5 µM), the MIC [2] was > 100 µg/mL and the MIC [3] was 0.1 µg/mL (≈ 0.14 µM). The MIC [4] was > 100 µg/mL, the MIC [5] was 100 µg/mL (≈ 140 µM) and the MIC [6] was 100 µg/mL (≈ 140 µM). For the same compound, the MIC ([7]; Escherichia coli, 24 h) was 0.2 µg/mL (≈ 0.279 µM), the MIC ([8]; ATCC8045, read-out: MIC) was > 100 µg/mL and the MIC [9] was 0.1 µg/mL (≈ 0.14 µM). The MIC ([10]; Micrococcus luteus, ATCC9341, 24 h, BHI agar) was < 0.05 µg/mL, the MIC [11] was > 100 µg/mL and the MIC [12] was > 100 µg/mL. It also gave an MIC [13] of 100 µg/mL (≈ 140 µM), an MIC ([14]; Pseudomonas aeruginosa, K799/61, 24 h) of 1.56 µg/mL (≈ 2.18 µM) and an MIC [15] of 100 µg/mL (≈ 140 µM). For the same compound, the MIC [16] was 100 µg/mL (≈ 140 µM), the MIC [17] was 0.2 µg/mL (≈ 0.279 µM) and the MIC [18] was 0.1 µg/mL (≈ 0.14 µM). The MIC ([19]; Staphylococcus aureus, A5177, 24 h) was 3.1 µg/mL (≈ 4.33 µM), the MIC [20] was 0.39 µg/mL (≈ 0.545 µM) and the MIC [21] was 0.2 µg/mL (≈ 0.279 µM). For the same compound, the MIC ([22]; Streptococcus agalactiae, CMX508, 24 h, BHI agar) was 0.1 µg/mL (≈ 0.14 µM), the MIC [23] was 0.1 µg/mL (≈ 0.14 µM) and the MIC ([24]; read-out: MIC) was 1.56 µg/mL (≈ 2.18 µM). The MIC ([25]; Streptococcus, EES61, 24 h) was < 0.05 µg/mL, the MIC [26] was 0.2 µg/mL (≈ 0.279 µM) and the MIC [27] was 0.1 µg/mL (≈ 0.14 µM). It also gave an MIC [28] of 0.39 µg/mL (≈ 0.545 µM), an ED50 ([29]; NCTC10649, 168 h, oral) of 25.2 mg/kg and an ED50 [29, 30] of 22.6 mg/kg.

Reference: patent US5288709A, “Erythromycin derivatives” (priority 1991, dated 1994)
